Measured values from patent publication US9487508B2, “SGC stimulators” (IRONWOOD PHARMACEUTICALS, INC., priority 2012, dated 2016).

Molecular target: T1, soluble guanylate cyclase (sGC) (Homo sapiens, UniProt Q02108+Q02153)
T1 construct: endogenously expressing soluble guanylate cyclase (sGC); endogenous in cells; host or cells: HEK293
T1 sequence (Q02153 1-619): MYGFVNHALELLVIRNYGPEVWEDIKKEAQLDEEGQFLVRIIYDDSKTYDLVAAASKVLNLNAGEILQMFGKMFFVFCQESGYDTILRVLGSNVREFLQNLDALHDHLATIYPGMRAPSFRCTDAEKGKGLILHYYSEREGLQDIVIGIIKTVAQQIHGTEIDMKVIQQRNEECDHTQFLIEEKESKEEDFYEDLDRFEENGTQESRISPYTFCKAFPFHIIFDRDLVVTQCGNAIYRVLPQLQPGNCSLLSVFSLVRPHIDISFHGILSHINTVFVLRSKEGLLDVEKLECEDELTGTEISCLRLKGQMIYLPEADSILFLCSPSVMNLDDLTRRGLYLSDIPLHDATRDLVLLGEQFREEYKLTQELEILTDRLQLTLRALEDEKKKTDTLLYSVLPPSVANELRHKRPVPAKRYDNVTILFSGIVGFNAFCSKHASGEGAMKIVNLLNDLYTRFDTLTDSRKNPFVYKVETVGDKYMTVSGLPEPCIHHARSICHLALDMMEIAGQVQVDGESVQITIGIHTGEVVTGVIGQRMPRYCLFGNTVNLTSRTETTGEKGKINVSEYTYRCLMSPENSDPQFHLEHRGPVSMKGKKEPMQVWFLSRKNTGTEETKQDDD
T1 sequence (Q02108 1-690): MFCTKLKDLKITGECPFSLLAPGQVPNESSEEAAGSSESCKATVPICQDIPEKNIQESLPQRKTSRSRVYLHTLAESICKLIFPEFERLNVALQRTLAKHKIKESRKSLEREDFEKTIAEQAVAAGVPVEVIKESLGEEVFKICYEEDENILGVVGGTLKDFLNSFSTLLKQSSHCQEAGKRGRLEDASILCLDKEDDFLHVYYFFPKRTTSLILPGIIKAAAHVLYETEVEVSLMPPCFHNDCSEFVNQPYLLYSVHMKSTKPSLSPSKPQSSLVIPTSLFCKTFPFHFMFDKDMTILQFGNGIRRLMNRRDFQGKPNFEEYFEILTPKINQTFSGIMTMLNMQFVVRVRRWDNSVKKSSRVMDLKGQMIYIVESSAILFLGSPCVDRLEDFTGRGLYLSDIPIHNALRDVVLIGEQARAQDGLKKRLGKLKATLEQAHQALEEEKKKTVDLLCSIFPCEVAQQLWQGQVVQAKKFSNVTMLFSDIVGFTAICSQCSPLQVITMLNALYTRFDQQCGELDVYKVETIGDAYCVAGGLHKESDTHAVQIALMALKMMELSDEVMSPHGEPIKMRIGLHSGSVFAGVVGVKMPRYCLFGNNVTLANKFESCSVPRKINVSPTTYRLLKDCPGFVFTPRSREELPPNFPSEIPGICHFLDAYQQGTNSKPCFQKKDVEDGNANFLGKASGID
Assay: sGC-HEK-cGMP assay with SNP incubation (LC/MS read-out)
Type: cell-based
Conditions: 10 μM SNP
Experimental: (Assay Run with SNP Incubation)
Human embryonic kidney cells (HEK293), endogenously expressing soluble guanylate cyclase (sGC), were used to evaluate the activity of test compounds. Compounds stimulating the sGC receptor should cause an increase in the intracellular concentration of cGMP. HEK 293 cells were seeded in Dulbecco's Modification of Eagle's Medium supplemented with fetal bovine serum (10% final) and L-glutamine (2 mM final) in a 200 μL volume at a density of 1×10^5 cells/well in a poly-D-lysine coated 96 well flat bottom plate and grown overnight at 37° C. Medium was aspirated and cells were washed with 1× Hank's Buffered Saline Salt Solution (200 μL). Cells were then incubated for 15 minutes at 37° C. with 200 μL of a 0.5 mM 3-isobutyl-1-methylxanthine (IBMX) solution. Test article and sodium nitroprusside solutions (x μM concentration for test article solution and 10 μM concentration for SNP solution; wherein x is one of the following concentrations);
were then added to the assay mixture (2 μL each) and the resulting mixture incubated at 37° C. for 10 minutes. After the 10 minute incubation, the assay mixture was aspirated and 0.1M HCl (200 μL) was added to the cells. The plate was incubated at 4° C. for 30 minutes in the 0.1M HCl to stop the reaction and lyse the cells. The plates were then centrifuged at 1,200 g for 5 minutes at room temperature. Supernatants were collected and transferred to a new flat bottom 96 well plate for analysis by HPLC-MS. Vehicle controls were carried out using DMSO (1%) solutions. A known sGC stimulator, BAY 41-2272, was used as the positive control. Samples were diluted with an equal volume of 1 M Ammonium Acetate (pH 7) to neutralize samples for better chromatography. A 2×cGMP standard solution was prepared in 0.1 M HCl and then diluted with an equal volume of 1 M Ammonium Acetate, with the following final concentrations in nM: 1024, 512, 256, 128, 64, 32, 16, 8, 4, 2, 1. cGMP concentrations in the test plates were determined from each sample using the LC/MS conditions shown in Table 2 below and the calculated cGMP standard curve. EC50 values were calculated from concentration-response curves generated with GraphPad Prism Software.
The biological activities of some of the compounds of Formula I or Formula Ib determined with the sGC-HEK assay with SNP incubation are summarized in Tables 3A and 3B.

Compound `Nc1ccnc(-n2cc(-c3ncco3)c(Cc3ccccc3F)n2)n1` [Compound I-2] has an Emax at 10 µM (10 μM compound, 100% = BAY 41-2272 at 10 μM with 100 μM SNP, read-out: HEK assay (Percent Emax at 10 μM)) of 80 to 100%, an Emax at 30 µM (30 μM compound, 100% = BAY 41-2272 at 10 μM with 100 μM SNP, read-out: HEK assay (Percent Emax at 30 μM)) of 80 to 100% and an EC50 (top of curve fitted to 100%, read-out: HEK assay EC50-constrained) of 1000 to 5000 nM.
